US20190071416A1, “COMPOUNDS FOR TREATMENT OF CANCER AND EPIGENETICS” (Agency For Science, Technology and Research, priority 2015, published 2019)
pIC50: −log10 of the molar value.

Molecular target: T1, SMYD3 (Homo sapiens, UniProt Q9H7B4)
T1 sequence (Q9H7B4 1-428): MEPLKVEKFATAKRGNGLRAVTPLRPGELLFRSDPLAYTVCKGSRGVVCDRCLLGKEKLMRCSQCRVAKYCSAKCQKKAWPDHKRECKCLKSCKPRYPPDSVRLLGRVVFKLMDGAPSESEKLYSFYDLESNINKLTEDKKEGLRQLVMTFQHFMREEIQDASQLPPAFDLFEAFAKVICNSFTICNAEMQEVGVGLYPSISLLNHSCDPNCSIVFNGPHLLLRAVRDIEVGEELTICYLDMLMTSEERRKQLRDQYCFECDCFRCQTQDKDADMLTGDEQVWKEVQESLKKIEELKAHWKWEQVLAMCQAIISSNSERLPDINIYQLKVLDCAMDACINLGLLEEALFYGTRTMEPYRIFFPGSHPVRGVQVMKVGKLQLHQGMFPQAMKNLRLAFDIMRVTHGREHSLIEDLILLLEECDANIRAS
Assay: SMYD3 biochemical assay (MTase-Glo, MAP3K2 peptide substrate)
Settings: Table 3; MTase assay, MAP3K2 peptide substrate; read-out: IC50
Procedure, shortened: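 Methylation of MAP3K2 peptide (10 µM final) with SAM (1.0 µM final) by SMYD3, 30 min at room temperature. SAH formed was enzymatically converted to ATP and detected as luminescence with MTase-Glo reagents; IC50 by non-linear regression.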

Row | Compound | pIC50
1 | CCCOC(=O)N1CCN(C(=O)c2ccc3c(Cl)c(C)c(-c4cccc([N+](=O)[O-])c4)nc3c2)CC1 [B043, Propyl 4-(4-chloro-3-methyl-2-(3-nitrophenyl)quinoline-7-carbonyl)piperazine-1-carboxylate] | 5.62
2 | CCCOC(=O)N1CCN(C(=O)c2ccc3c(Cl)c4c(nc3c2)CCC(CC#N)C4)CC1 (centres unmarked) [A078, Propyl 4-(9-chloro-7-(cyanomethyl)-5,6,7,8-tetrahydroacridine-3-carbonyl)piperazine-1-carboxylate] | 6.55
3 | CCCOC(=O)N1CCN(C(=O)c2ccc3c(Cl)cc(-c4ccc(N5CCCC5)cc4)nc3c2)CC1 [B050, Propyl 4-(4-chloro-2-(4-(pyrrolidin-1-yl)phenyl)quinoline-7-carbonyl)piperazine-1-carboxylate] | 6.10
4 | CCCOC(=O)N1CCN(C(=O)c2ccc3c(Cl)cc(-c4ccc(C(C)OCC)cc4)nc3c2)CC1 (centres unmarked) [B239, Propyl 4-(4-chloro-2-(4-(1-ethoxyethyl)phenyl)quinoline-7-carbonyl)piperazine-1-carboxylate] | 5.89
5 | CCCOC(=O)N1CCN(C(=O)c2ccc3c(Cl)cc(-c4cccc(C(N)=O)c4)nc3c2)C[C@H]1C [B053, Propyl (R)-4-(2-(3-carbamoylphenyl)-4-chloroquinoline-7-carbonyl)-2-methylpiperazine-1-carboxylate] | 6.74
6 | CCCOC(=O)N1CC(C)N(C(=O)c2ccc3c(Cl)c4c(nc3c2)CCCC4)C(C)C1 (centres unmarked) [A043, Propyl 4-(9-chloro-5,6,7,8-tetrahydroacridine-3-carbonyl)-3,5-dimethylpiperazine-1-carboxylate] | 6.26
7 | CCCOC(=O)N1CCN(C(=O)c2ccc3c(Cl)c4c(nc3c2)CC(C#N)CC4)CC1 (centres unmarked) [A025, Propyl 4-(9-chloro-6-cyano-5,6,7,8-tetrahydroacridine-3-carbonyl)piperazine-1-carboxylate] | 5.72
8 | CCCOC(=O)N1CCN(C(=O)c2ccc3c(Cl)c(C)c(-c4ccccc4)nc3c2)C[C@H]1C [B007, Propyl (R)-4-(4-chloro-3-methyl-2-phenylquinoline-7-carbonyl)-2-methylpiperazine-1-carboxylate] | 6.66
9 | CCCOC(=O)N1CCN(C(=O)c2ccc3c(Cl)cc(-c4ccc(C(=O)NC5CC5)c(F)c4)nc3c2)CC1 [B205, Propyl 4-(4-chloro-2-(4-(cyclopropylcarbamoyl)-3-fluorophenyl)quinoline-7-carbonyl)piperazine-1-carboxylate] | 6.05
10 | CCCOC(=O)N1CCN(C(=O)c2ccc3c(Cl)cc(CC)nc3c2)CC1 [C004, Propyl 4-(4-chloro-2-ethylquinoline-7-carbonyl)piperazine-1-carboxylate] | 5.85
11 | CCCOC(=O)N1CCN(C(=O)c2ccc3c(Cl)cc(-c4cn[nH]c4C(F)(F)F)nc3c2)CC1 [B250, Propyl 4-(4-chloro-2-(5-(trifluoromethyl)-1H-pyrazol-4-yl)quinoline-7-carbonyl)piperazine-1-carboxylate] | 5.31
12 | Cc1cc(C(=O)N2CCN(C(=O)c3ccc4c(Cl)c5c(nc4c3)CCCC5)[C@@H](C)C2)no1 [A083, (S)-(9-Chloro-5,6,7,8-tetrahydroacridin-3-yl)(2-methyl-4-(5-methylisoxazole-3-carbonyl)piperazin-1-yl)methanone] | 6.36
13 | CCCOC(=O)N1CCN(C(=O)c2ccc3c(Cl)cc(-c4ccc(C(=O)NC)c(C)c4)nc3c2)CC1 [B236, Propyl 4-(4-chloro-2-(3-methyl-4-(methylcarbamoyl)phenyl)quinoline-7-carbonyl)piperazine-1-carboxylate] | 6.44
14 | CCCOC(=O)N1CCN(C(=O)c2ccc3c(Cl)c(C)c(-c4cccc(OC)c4)nc3c2)CC1 [B029, Propyl 4-(4-chloro-2-(3-methoxyphenyl)-3-methylquinoline-7-carbonyl)piperazine-1-carboxylate] | 5.85
15 | CCCOC(=O)N1CCN(C(=O)c2ccc3c(Cl)c(C)c(-c4cccc(C#N)c4)nc3c2)CC1 [B032, Propyl 4-(4-chloro-2-(3-cyanophenyl)-3-methylquinoline-7-carbonyl)piperazine-1-carboxylate] | 5.26
16 | CCCOC(=O)N1CCN(C(=O)c2ccc3c(Cl)cc(-c4cnn(C)c4)nc3c2)[C@@H](C)C1 [B219, Propyl (S)-4-(4-chloro-2-(1-methyl-1H-pyrazol-4-yl)quinoline-7-carbonyl)-3-methylpiperazine-1-carboxylate] | 6.64
17 | CCCOC(=O)N1CCN(C(=O)c2ccc3c(Cl)c4c(nc3c2)CCCC4)CC1COC(=O)CCC (centres unmarked) [A061, Propyl 2-((butyryloxy)methyl)-4-(9-chloro-5,6,7,8-tetrahydroacridine-3-carbonyl)piperazine-1-carboxylate] | 5.39
18 | CCCOC(=O)N1CCN(C(=O)c2ccc3c(Cl)cc(-c4cnc5[nH]nc(C)c5c4)nc3c2)[C@@H](C)C1 [B200, Propyl (S)-4-(4-chloro-2-(3-methyl-1H-pyrazolo[3,4-b]pyridin-5-yl)quinoline-7-carbonyl)-3-methylpiperazine-1-carboxylate] | 5.99

Compounds with a higher pIC50, results first:

Row | pIC50 | Compound
19 | 6.92 | CCCOC(=O)N1CCN(C(=O)c2ccc3c(Cl)c4c(nc3c2)CC(c2ccccn2)CC4)CC1 (single isomer, unassigned) [A053 (Ent-1), Propyl (R/S)-4-(9-chloro-6-(pyridin-2-yl)-5,6,7,8-tetrahydroacridine-3-carbonyl)piperazine-1-carboxylate]
20 | 7.22 | CCCOC(=O)N1CCN(C(=O)c2ccc3c(Cl)cc(-c4cnn(C5CCCC5)c4)nc3c2)CC1 [B277, Propyl 4-(4-chloro-2-(1-cyclopentyl-1H-pyrazol-4-yl)quinoline-7-carbonyl)piperazine-1-carboxylate]
21 | 7.12 | CCCOC(=O)N1CCN(C(=O)c2ccc3c(Cl)cc(-c4ccc(OC)c(CN)c4)nc3c2)C[C@H]1C [B107, Propyl (R)-4-(2-(3-(aminomethyl)-4-methoxyphenyl)-4-chloroquinoline-7-carbonyl)-2-methylpiperazine-1-carboxylate]
22 | 7.22 | CCCOC(=O)N1CCN(C(=O)c2ccc3c(Cl)cc(-c4cccc(CNC)c4)nc3c2)C[C@H]1C [B124, Propyl (R)-4-(4-chloro-2-(3-((methylamino)methyl)phenyl)quinoline-7-carbonyl)-2-methylpiperazine-1-carboxylate]
23 | 6.92 | CCCOC(=O)N1CCN(C(=O)c2ccc3c(Cl)cc(-c4cc(C)n(C)c4C)nc3c2)CC1 [B214, Propyl 4-(4-chloro-2-(1,2,5-trimethyl-1H-pyrrol-3-yl)quinoline-7-carbonyl)piperazine-1-carboxylate]
24 | 6.82 | CCCOC(=O)N1CCN(C(=O)c2ccc3c(Cl)cc(-c4ccc(OC)c(F)c4)nc3c2)CC1 [B165, Propyl 4-(4-chloro-2-(3-fluoro-4-methoxyphenyl)quinoline-7-carbonyl)piperazine-1-carboxylate]
25 | 6.80 | CNC(=O)c1ccc(-c2cc(Cl)c3ccc(C(=O)N4CCN(C(=O)OCCCF)[C@H](C)C4)cc3n2)cc1 [B233, 3-Fluoropropyl (R)-4-(4-chloro-2-(4-(methylcarbamoyl)phenyl)quinoline-7-carbonyl)-2-methylpiperazine-1-carboxylate]
26 | 6.82 | CCCOC(=O)N1CCN(C(=O)c2ccc3c(Cl)c4c(nc3c2)CC(c2ccc(F)cn2)CC4)C[C@H]1C (stereo partly drawn) [A098, Propyl (2R)-4-(9-chloro-6-(5-fluoropyridin-2-yl)-5,6,7,8-tetrahydroacridine-3-carbonyl)-2-methylpiperazine-1-carboxylate]
